According to ChEMBL document CHEMBL4052728, “Diaminopimelic acid (DAP) analogs bearing isoxazoline moiety as selective inhibitors against meso-diaminopimelate dehydrogenase (m-Ddh) from Porphyromonas gingivalis” (Bioorg Med Chem Lett, 2017):
In brackets after ≈: the same amount, converted by molar mass. Activity calls are given as the source filed them. No cut-off for these calls is given here.

Tests used:
[1] = molecular target: T1, Meso-diaminopimelate D-dehydrogenase (Porphyromonas gingivalis (strain ATCC BAA-308 / W83)) (UniProt Q7MW40); experiment: Inhibition of Porphyromonas gingivalis m-Ddh expressed in Escherichia coli BL21 (DE3) pLysS up to 1 mM at pH 7.8 using meso-diaminopimelate as substrate by spectrophotometric method
T1 sequence (whole entry): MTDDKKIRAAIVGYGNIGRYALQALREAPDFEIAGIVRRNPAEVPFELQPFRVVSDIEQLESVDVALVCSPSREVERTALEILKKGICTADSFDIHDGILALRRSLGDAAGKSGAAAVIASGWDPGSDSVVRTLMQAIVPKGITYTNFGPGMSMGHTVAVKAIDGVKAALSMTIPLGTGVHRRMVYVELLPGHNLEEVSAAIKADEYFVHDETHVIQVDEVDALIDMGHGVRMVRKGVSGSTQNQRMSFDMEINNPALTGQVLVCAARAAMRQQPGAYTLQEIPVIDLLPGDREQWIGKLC

[2] = molecular target: T1, Meso-diaminopimelate D-dehydrogenase (Porphyromonas gingivalis (strain ATCC BAA-308 / W83)); experiment: Inhibition of Porphyromonas gingivalis m-Ddh expressed in Escherichia coli BL21 (DE3) pLysS up to 3 mM at pH 10.5 using meso-diaminopimelate as substrate by spectrophotometric method
[3] = molecular target: T2, Meso-diaminopimelate D-dehydrogenase (Porphyromonas gingivalis (strain ATCC BAA-308 / W83), UniProt Q7MW40); experiment: Inhibition of Porphyromonas gingivalis m-Ddh expressed in Escherichia coli BL21 (DE3) pLysS at pH 7.8 using meso-diaminopimelate as substrate by spectrophotometric method
T2 sequence (Q7MW40 whole entry): T1 sequence (whole entry)

[4] = molecular target: T2, Meso-diaminopimelate D-dehydrogenase; experiment: Inhibition of Porphyromonas gingivalis m-Ddh expressed in Escherichia coli BL21 (DE3) pLysS at pH 10.5 using meso-diaminopimelate as substrate by spectrophotometric method
Porphyromonas gingivalis [5] = experiment: Antibacterial activity against Porphyromonas gingivalis W83 after 24 hrs by broth microdilution method; assay type: functional; settings: W83, 24 h
Porphyromonas gingivalis [6] = experiment: Antibacterial activity against Porphyromonas gingivalis ATCC 33277 after 24 hrs by broth microdilution method; assay type: functional; settings: ATCC 33277, 24 h
Fusobacterium nucleatum = experiment: Growth inhibition of Fusobacterium nucleatum ATCC 25586 up to 3 mM after 24 hrs by broth microdilution method
Staphylococcus aureus = experiment: Growth inhibition of Staphylococcus aureus N315 up to 3 mM after 24 hrs by broth microdilution method

inhibition [1]	inhibition [2]	IC50 [3]	IC50 [4]	MIC (Porphyromonas gingivalis [5])	MIC (Porphyromonas gingivalis [6])	SMILES	growth inhibition (GI) (Fusobacterium nucleatum)	growth inhibition (GI) (Staphylococcus aureus)
inactive	inactive	–	–	–	–	N[C@@H](C[C@@H]1CC(C(=O)O)=NO1)C(=O)O	–	–
–	–	14.9 µM	211 µM	773 µM (≈ 156 µg/mL)	1880 µM (≈ 379 µg/mL)	N[C@@H](C[C@H]1CC(C(=O)O)=NO1)C(=O)O	Non-Toxic	Non-Toxic
